Source: publication PMC7616177, “From structure to clinic: Design of a muscarinic M1 receptor agonist with the potential to treat Alzheimer’s disease” (Cell, 2021)

Columns and labels:
rat M1-receptor = biological target: T1, rat M1-receptor (Rattus norvegicus, UniProt P08482); assay: Recombinant rat M1-receptor functional assay; assay type: cell-based
T1 construct: expressed in transfected cells; host or cells: not described

[1] = test system: Tg37 hemizygous mice inoculated with RML prions; assay type: in vivo, mouse; details: prion mice 9 w.p.i., 30 mg/kg i.p., 24 h after training
human M1 receptor = biological target: T2, human M1 receptor (Homo sapiens, UniProt P11229); assay: pERK1/2 assay in CHO cells overexpressing human M1-receptor; assay type: cell-based
T2 construct: expressed in transfected cells
T2 sequence (P11229 1-460): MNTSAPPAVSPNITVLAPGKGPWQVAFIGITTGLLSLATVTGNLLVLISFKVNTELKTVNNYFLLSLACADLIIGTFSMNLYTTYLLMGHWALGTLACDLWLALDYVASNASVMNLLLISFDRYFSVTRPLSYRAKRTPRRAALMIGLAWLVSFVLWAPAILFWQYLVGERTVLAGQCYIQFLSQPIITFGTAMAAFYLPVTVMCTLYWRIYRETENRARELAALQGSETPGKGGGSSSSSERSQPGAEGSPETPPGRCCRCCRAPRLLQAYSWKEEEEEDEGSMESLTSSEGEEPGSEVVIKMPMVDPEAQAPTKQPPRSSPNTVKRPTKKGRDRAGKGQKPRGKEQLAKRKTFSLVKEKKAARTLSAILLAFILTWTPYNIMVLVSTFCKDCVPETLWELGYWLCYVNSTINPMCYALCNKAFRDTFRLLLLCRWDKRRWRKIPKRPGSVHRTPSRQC

panel of 62 GPCRs = assay: DiscoverX neurological and psychiatric GPCR selectivity panel; assay type: cell-based; details: 10 μM
healthy elderly subjects = assay: Clinical fMRI Arena task in healthy elderly subjects; assay type: in vivo, human; parameters: Activation across a-priori regions during encoding and retrieval / Left hippocampus activation effect: dose or concentration left out as unconfirmed
Source text: All functional MRI images were acquired on a 3T scanner using gradient echo-echo planar imaging (GRE-EPI: TR: […]; TE: 30 ms; 90-degree flip angle; slices: 53; voxel size 3.75x 3.75 mm) and an 8-channel head coil. All data processing was done using Statistical Parameteric Mapping (SPM) version 5 software. All functional images were co-registered to subjects own T1 weighted structural image for anatomical localization, realigned using a least-squares approach and a 6 parameter (rigid body) spatial translation, normalized to Montreal neurological institute (MNI) using a high dimensional, non-linear transformation and smoothed using 3D 7 mm Gaussian filter. A high pass filter was applied to remove low temporal frequency drift. Bilateral hippocampal and caudate masks based on previous publications using the Arena task were used for analysis ([Antonova et al., 2009], [2011]). The masks consisted of spheres of radius 6mm centered on co-ordinates from these papers.
A block design was used to assess functional activation during encoding, retrieval, and rest (control) conditions of the Arena task. Beta-estimates of functional response during each condition were created by modeling signal changes convolved with a double gamma hemodynamic response function with peak responses at 4 and 8 s following stimulus onset for each individual. In the first level analysis, difference in beta estimates for encoding versus rest, and retrieval versus rest were derived. […] Functional responses in the a-priori ROIs were extracted using hippocampal, ventral striatum, and caudate masks derived from subject own T1 weighted image. To test for drug effects in these pre-specified regions an ANOVA including fixed-effect terms representing treatment group, study site as a between subject factor, and baseline MMSE score as covariate was used.

C57BL/6J mice = assay: Scopolamine-induced deficit in contextual fear conditioning; assay type: in vivo, mouse; details: mice, 10, 30 or 100 mg/kg i.p. with scopolamine 1.5 mg/kg i.p.
Description: C57BL/6J male mice (aged 8−12 weeks) were acclimatized to the behavioral testing suite at least 2 hours prior to the test. […] Mice were placed in the conditioning chamber (ANY-maze Fear Conditioning System; Stoelting, Dublin, Ireland); after a 2-min adaptation period, they received three tone/foot shock pairings where the foot shock (un-conditioned stimulus; 2 s; 0.4 mA) always co-terminated with a tone (conditioned stimulus; 2.8 kH; 85 dB; 30 s). The conditioned stimulus−unconditioned stimulus pairings were separated by 1-min intervals. After the mice completed training, they remained in the conditioning chamber for 1 min and were then returned to their home cages. The next day, the mice were placed back in the conditioning chamber, and time spent immobile was recorded for 3 min to assess context-dependent learning. Data were analyzed using ANY-maze software (Stoelting).

Wistar rats = assay: Scopolamine-induced amnesia in passive avoidance; assay type: in vivo, rat
Description: Male adult Wistar rats (Harlan, UK; approximately 11 weeks of age) were acclimatised to the experimental rooms for three days (study days 1-3) and handled for a further two days (study days 4 and 5) prior to the experiment.
Donepezil (0.01 and 0.1 mg/kg) was administered via intraperitoneal injection (in saline) 60 min prior to training. Rats were trained in a single-trial, step-through, light-dark passive avoidance paradigm. The training apparatus consisted of a chamber 300 mm in length, 260 mm wide, and 270 mm in height. The front and top were transparent, allowing the experimenter to observe the behavior of the animal inside the apparatus. The chamber was divided into two compartments, separated by a central shutter that contained a small opening (50 mm wide and 75 mm high) set close to the front of the chamber. The smaller of the compartments measured 90 mm in width and contained a low-light (~200 lux) illumination source. The larger compartment measured 210 mm in width and was not illuminated. The floor of this dark compartment consisted of a grid of 16 horizontal stainless-steel bars that were 5 mm in diameter and spaced 12.5 mm apart. A current generator supplied 0.75 mA to the grid floor, which was scrambled once every 0.5 s across the 16 bars.
Animals were placed facing the rear of the light compartment of the apparatus, immediately after which, spontaneous behavior was assessed. The timer was started once the animal completely turned to face the front of the chamber. Latency to enter the dark chamber was recorded, and having completely entered the dark compartment foot shock was administered to the animal, which immediately returned to the light compartment. Animals were then returned to their home cages. Between each training session, both compartments of the chamber were cleaned to remove any confounding olfactory cues. Vehicle (saline) or scopolamine (1 mg/kg) was administered to rats 6 hours after training. Recall of the inhibitory stimulus was evaluated 24 hour post-training on study day 7, by returning the animal into the light chamber and recording their latency to enter the dark chamber, a criterion time of 600 s was employed. Observation of the animals was made by overhead video camera linked to a monitor behind a screened area. Animal treatment was blinded to the observer.

T1 sequence (P08482 whole entry): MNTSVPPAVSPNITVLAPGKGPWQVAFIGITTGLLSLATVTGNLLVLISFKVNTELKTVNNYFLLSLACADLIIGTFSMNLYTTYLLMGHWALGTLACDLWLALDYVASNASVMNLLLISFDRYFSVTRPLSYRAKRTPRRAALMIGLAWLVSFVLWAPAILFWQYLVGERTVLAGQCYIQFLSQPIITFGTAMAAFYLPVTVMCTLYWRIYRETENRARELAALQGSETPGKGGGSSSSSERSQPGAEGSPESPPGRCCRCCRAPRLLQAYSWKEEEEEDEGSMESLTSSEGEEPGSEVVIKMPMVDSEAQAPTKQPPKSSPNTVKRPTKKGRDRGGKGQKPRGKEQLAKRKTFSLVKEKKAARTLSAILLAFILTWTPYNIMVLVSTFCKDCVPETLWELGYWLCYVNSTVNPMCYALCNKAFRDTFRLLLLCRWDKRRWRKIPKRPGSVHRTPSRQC

CCOC(=O)N1CCC[C@H](N2CCC(C(=O)NC3(C)CCC3)CC2)CC1 [HTL9936, ethyl (S)-4-(4-((1-methylcyclobutyl)carbamoyl)piperidin-1-yl)azepane-1-carboxylate]
Agonist behaviour at the rat receptor (rat M1-receptor): partial agonist
Immobility level on re-exposure to training environment [1]: ~ 34%
EC50 (human M1 receptor): 32 nM
Agonism at other receptors (panel of 62 GPCRs): < 25%
Activation across a-priori regions during encoding and retrieval (healthy elderly subjects; 10.1 dose (so in the source)): increased bilateral activation
Left hippocampus activation effect (healthy elderly subjects; 40.3 dose (so in the source)): smaller effect
Arena task performance (healthy elderly subjects; healthy elderly, i.v. infusion): did not significantly improve task performance
fMRI activation during encoding of spatial cues (healthy elderly subjects; healthy elderly, i.v. infusion): significant drug by activation interaction effect in the left hippocampus
Predicted steady-state plasma concentration (healthy elderly subjects; human, high dose 40.3 mg i.v.): 100 ng/mL
Predicted exposure as multiple of human M1-receptor in vitro potency (healthy elderly subjects; human, low and high doses): 0.2- to 3.4 fold
Predicted steady-state plasma concentration (healthy elderly subjects; human, low dose 10.1 mg i.v.): 25 ng/mL
Effect on scopolamine-induced fear learning deficit (C57BL/6J mice): dose-dependent restoration of learning and memory responses
Maximal response compared with donepezil 0.1 mg/kg (Wistar rats; rat passive avoidance): equivalent to that obtained using the clinically approved acetylcholinesterase inhibitor donepezil
Response alone (Wistar rats; rat passive avoidance, HTL9936 3 mg/kg): no response alone
Effect on scopolamine-induced amnesia (Wistar rats; rat, 3, 10 or 30 mg/kg p.o., scopolamine 1 mg/kg i.p.): reversed in a dose-dependent manner
